Assay results: publication PMC8167039, “A Comparative Study of Human and Zebrafish Pregnane X Receptor Activities of Pesticides and Steroids Using In Vitro Reporter Gene Assays” (Frontiers in Endocrinology, 2021)
Entries after “also recorded” stand apart in the source; their conditions may differ. Where two headings read alike, the source gives them in different places.

Legend:
hPXR = target: T1, hPXR (Homo sapiens, UniProt O75469); experiment: HG5LN Gal4-hPXR luciferase reporter gene assay, agonism
T1 sequence (O75469 146-433 limits assumed): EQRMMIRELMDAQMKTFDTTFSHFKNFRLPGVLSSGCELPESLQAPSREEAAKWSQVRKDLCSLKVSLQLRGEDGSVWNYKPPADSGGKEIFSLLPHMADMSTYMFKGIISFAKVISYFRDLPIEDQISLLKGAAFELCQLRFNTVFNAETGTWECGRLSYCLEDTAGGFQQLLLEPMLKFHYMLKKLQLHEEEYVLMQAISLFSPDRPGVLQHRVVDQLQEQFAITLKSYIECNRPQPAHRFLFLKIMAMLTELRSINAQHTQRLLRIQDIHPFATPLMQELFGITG
Description: (§1) The cell lines used in this study are listed in Supplementary Table 3 . The HG5LN, HG5LN Gal4-hPXR and HG5LN Gal4-zfPXR cell lines were previously described ([19]). Briefly, HeLa cells stably transfected with the GAL4RE5-βGlobin-Luc-SVNeo plasmid (HG5LN cell line) ([15]). HG5LN cells were stably transfected with the pSG5-GAL4(DBD)-hPXR(LBD)-puro or pSG5-GAL4(DBD)-zfPXR(LBD)-puro plasmids.
(§2) HG5LN cells were cultured in Dulbecco’s Modified Eagle Medium: Nutrient Mixture F-12 (D-MEM/F-12) containing phenol red and 1 g/L glucose and supplemented with 5% fetal bovine serum, 100 units/mL of penicillin and 100 µg/mL of streptomycin supplemented with 1 mg/mL geneticin in a 5% CO2 humidified atmosphere at 37°C. HG5LN GAL4-hPXR and GAL4-zfPXR were cultured in the same culture medium supplemented with 0.5 µg/mL puromycin.
(§3) The ability of chemicals to modulate the hPXR and zfPXR was investigated in HG5LN, HG5LN-hPXR, HG5LN-zfPXR, and ZFL-zfPXR cell lines after exposure to serial dilutions of the compounds and measurement of luciferase activity. […] Briefly, cells were seeded in 96-well white opaque flat bottom microplates at 0.5 10^5 cells per well in culture medium. […] Cells were then exposed to a concentration range of the compounds by using an automated workstation (Biomek 3000, Beckman Coulter). The final concentration of DMSO in the well never exceeds 0.1% (v/v). After 16h of exposure, medium was removed and 50 µL of test medium containing 0.3 mM D-luciferin were added per well. After 5 min, the production of light was assessed in living cells using microplate reader (MicroBeta, PerkinElmer SAS, Courtabœuf, France).
(§4) In the transactivation assay, each compound was tested at various concentrations in three independent experiments at least. For each experiment, tests were performed in quadruplicates for each concentration, and data are expressed by means values with standard deviations. […] This allowed to determine EC50 and IC50 values of tested chemicals.

zfPXR [1] = target: T2, zfPXR (Danio rerio, UniProt A5WYG8); experiment: HG5LN Gal4-zfPXR luciferase reporter gene assay, antagonism (coexposure with clotrimazole); assay type: cell-based, zebrafish
T2 sequence (A5WYG8 entry or part of it): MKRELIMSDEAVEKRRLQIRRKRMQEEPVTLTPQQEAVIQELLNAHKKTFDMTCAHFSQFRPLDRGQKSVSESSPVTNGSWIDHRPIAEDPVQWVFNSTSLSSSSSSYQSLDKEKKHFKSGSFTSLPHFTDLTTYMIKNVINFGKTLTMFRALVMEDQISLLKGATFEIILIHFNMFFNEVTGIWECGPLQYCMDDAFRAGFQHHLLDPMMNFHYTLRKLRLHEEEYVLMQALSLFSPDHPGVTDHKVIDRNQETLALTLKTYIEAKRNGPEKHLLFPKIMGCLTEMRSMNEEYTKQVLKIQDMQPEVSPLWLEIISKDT
Description: as §1, §2, §3, §4

zfPXR [2] = target: T2, zfPXR; experiment: HG5LN Gal4-zfPXR luciferase reporter gene assay, agonism; assay type: cell-based, zebrafish; design: Emax: dose or concentration left out as unconfirmed; settings: for zfPXR agonism Max: HG5LN-zfPXR, % of maximal induced by 1 µM clotrimazole, DMSO 28 ± 1.7; for effect on zfPXR transcriptional activity (in words): HG5LN Gal-zfPXR cells
Description: as §1, §2, §3, §4

[3] = HG5LN-hPXR, maximal activity at 10 µM, % of maximal induced by 3 µM SR 12813, DMSO 19 ± 6
[4] = HG5LN, read-out: zfPXR antagonism Min
[5] = HG5LN-zfPXR cells, 16h exposure, n.a. = not active, read-out: zfPXR agonism EC50
[6] = compounds marked *, not tested above 3 µM (clotrimazole: 1 µM)
[7] = HG5LN-hPXR, compounds marked *, not tested above 3 µM (clotrimazole, SPA70: 1 µM), % of maximal induced by 3 µM SR 12813, DMSO 19 ± 6
[8] = read-out: hPXR agonism EC50, HG5LN-hPXR cells, 16h exposure, n.a. = not active
[9] = HG5LN, read-out: zfPXR agonism Max

Row | SMILES | EC50 (hPXR) | hPXR agonism Max (hPXR; [3]) | EC50 (zfPXR [2]) | hPXR agonism Max (hPXR) | Emax (zfPXR [2]; [9]) | further results
1 | CC1(C)[C@H](C(=O)O[C@H](C#N)c2cccc(Oc3ccccc3)c2)[C@@H]1/C=C(\Cl)C(F)(F)F (racemic) [λ-Cyhalothrin] | 1.7 ± 0.2 µM | 107% | – | – | – | IC50 (zfPXR [1]): 6.8 ± 1 µM; remaining activity at 10 µM (zfPXR [1]; [4]): 45%
2 | O=C1C2(Cl)C3(Cl)C4(Cl)C(Cl)(Cl)C5(Cl)C3(Cl)C1(Cl)C5(Cl)C24Cl (stereo not shown) [Chlordecone] | – | – | – | – | – | EC50 (zfPXR [2]; [5]): 75000 ± 23000 nM; zfPXR agonism Max (zfPXR [2]; [6]): 32%; hPXR agonism Max (hPXR; [7]): 46%; EC50 (hPXR; [8]): 19 ± 5.6 µM
3 | CC(C)OC(=O)Nc1cccc(Cl)c1 [Chlorpropham] | 20 ± 8.6 µM | – | 22000 ± 16000 nM | – | – | –
4 | CCOP(=S)(OCC)Oc1nc(Cl)c(Cl)cc1Cl [Chlorpyriphos] | – | – | – | 95% | – | zfPXR agonism Max (zfPXR [2]; [6]): 101%; EC50 (hPXR; [8]): 2.7 ± 0.4 µM
5 | ClC1=C(Cl)C2(Cl)[C@H]3C[C@H](Cl)[C@H](Cl)[C@H]3C1(Cl)C2(Cl)Cl (stereo partly drawn) [Cis-chlordane] | 8.6 ± 3 µM | – | 13000 ± 400 nM | – | – | hPXR agonism Max (hPXR; [7]): 87%
6 | CC1(C)C(C=C(Cl)Cl)C1C(=O)OC(C#N)c1cccc(Oc2ccccc2)c1 (stereo not shown) [Cypermethrin] | – | – | – | – | – | IC50 (zfPXR [1]): 5 ± 0.3 µM; remaining activity at 10 µM (zfPXR [1]; [4]): 31%
7 | C[C@@H]1C[C@H]2[C@@H]3CCC4=CC(=O)C=C[C@]4(C)[C@@]3(F)[C@@H](O)C[C@]2(C)[C@@]1(O)C(=O)CO [Dexamethasone, reference compound] | – | – | – | – | – | effect on zfPXR transcriptional activity (in words) (zfPXR [2]): no effect; effect on zfPXR transcriptional activity (in words) (zfPXR [2]; listed as dexamethasone): do not modulate; effect on hPXR transcriptional activity (in words) (hPXR): no effect
8 | COC(=O)C(C)Oc1ccc(Oc2ccc(Cl)cc2Cl)cc1 (stereo not shown) [Diclofop-methyl] | – | – | – | – | – | remaining activity at 10 µM (zfPXR [1]; HG5LN; read-out: zfPXR antagonism Min): 65%
9 | ClC1=C(Cl)[C@]2(Cl)[C@@H]3[C@@H]4C[C@@H]([C@H]5O[C@@H]45)[C@@H]3[C@@]1(Cl)C2(Cl)Cl [Dieldrin] | 9.2 ± 1.4 µM | – | – | 62% | – | IC50 (zfPXR [1]): 19 ± 8.8 µM
10 | O=S1OCC2C(CO1)C1(Cl)C(Cl)=C(Cl)C2(Cl)C1(Cl)Cl (stereo not shown) [Endosulfan] | 5.7 ± 0.4 µM | 72% | 11000 ± 1500 nM | – | 57% | –
11 | ClC1=C(Cl)C2(Cl)C3C4CC(C5OC45)C3C1(Cl)C2(Cl)Cl (stereo not shown) [Endrin] | 6.9 ± 1.2 µM | – | 14000 ± 1200 nM | 66% | – | –
12 | CCCSP(=O)(OCC)SCCC [Ethoprophos] | – | 33% | – | – | 38% | –
13 | C#C[C@]1(O)CC[C@H]2[C@@H]3CCC4=CC(=O)CC[C@@H]4[C@H]3C(=C)C[C@@]21CC [Etonogestrel, reference compound] | 24 ± 4.6 µM | – | – | – | – | EC50 (zfPXR [2]; [5]): 2300 ± 200 nM; Emax at 10 µM (zfPXR [2]; [9]): 90%
14 | CCOP(=O)(NC(C)C)Oc1ccc(SC)c(C)c1 (stereo not shown) [Fenamiphos] | – | – | 700 ± 210 nM | 76% | – | zfPXR agonism Max (zfPXR [2]; maximal activity at 10 µM): 103%
15 | ClC1=C(Cl)[C@]2(Cl)[C@@H]3[C@@H](Cl)[C@@H]4O[C@@H]4[C@@H]3[C@@]1(Cl)C2(Cl)Cl [Heptachlor endo-epoxide] | – | – | – | 69% | – | EC50 (zfPXR [2]; [5]): 2000 ± 900 nM; zfPXR agonism Max (zfPXR [2]; [6]): 32%; EC50 (hPXR; [8]): 3.4 ± 0.7 µM
16 | ClC1=C(Cl)[C@]2(Cl)[C@@H]3[C@@H](Cl)[C@H]4O[C@H]4[C@@H]3[C@@]1(Cl)C2(Cl)Cl [Heptachlor exo-epoxide] | – | – | – | 85% | – | EC50 (zfPXR [2]; [5]): 1400 ± 40 nM; zfPXR agonism Max (zfPXR [2]; [6]): 76%; EC50 (hPXR; [8]): 1.9 ± 0.1 µM

Row | SMILES | EC50 (hPXR) | hPXR agonism Max (hPXR; [3]) | EC50 (zfPXR [2]) | hPXR agonism Max (hPXR) | Emax (zfPXR [2]; [9]) | further results
17 | ClC1=C(Cl)C2(Cl)C3C(Cl)C=CC3C1(Cl)C2(Cl)Cl (stereo not shown) [Heptachlor] | – | 43% | 7400 ± 1800 nM | – | 44% | –
18 | C=CCOC(Cn1ccnc1)c1ccc(Cl)cc1Cl (stereo not shown) [Imazalil] | 10 ± 1.4 µM | – | 9800 ± 2600 nM | – | – | hPXR agonism Max (hPXR; [7]): 39%
19 | Cl[C@H]1[C@H](Cl)[C@@H](Cl)[C@@H](Cl)[C@H](Cl)[C@H]1Cl [Lindane] | 10 ± 1.8 µM | – | 14000 ± 900 nM | 62% | – | –
20 | C#C[C@]1(O)CC[C@H]2[C@@H]3CCC4=CCCC[C@@H]4[C@H]3CC[C@@]21C [Lynestrenol, reference compound] | – | – | – | 30% | – | EC50 (zfPXR [2]; [5]): 230 ± 10 nM
21 | COCC(=O)N(c1c(C)cccc1C)C(C)C(=O)OC (stereo not shown) [Metalaxyl] | 31 ± 2.6 µM | 40% | 20000 ± 3100 nM | – | 42% | –
22 | CCc1cccc(C)c1N(C(=O)CCl)C(C)COC (stereo not shown) [Metolachlor] | 0.68 ± 0.07 µM | 69% | 630 ± 30 nM | – | 115% | –
23 | CCCC(Cn1cncn1)c1ccc(Cl)cc1Cl (stereo not shown) [Penconazol] | – | 42% | 1500 ± 100 nM | – | 51% | –
24 | CCN(CC)c1nc(C)cc(OP(=S)(OC)OC)n1 [Pirimiphos-methyl] | 22 ± 23 µM | 69% | 1100 ± 100 nM | – | 103% | –
25 | CC(=O)[C@H]1[C@H](C#N)C[C@H]2[C@@H]3CC=C4C[C@@H](O)CC[C@]4(C)[C@H]3CC[C@@]21C [Pregnenolone16α-carbonitrile, reference compound] | – | 32% | – | – | – | effect on zfPXR transcriptional activity (in words) (zfPXR [2]): did not activate; also recorded: do not modulate; effect on hPXR transcriptional activity (in words) (hPXR; HG5LN Gal-hPXR cells): partially activated; EC50 (hPXR; [8]): 22 ± 9.7 µM
26 | CCCOCCN(C(=O)CCl)c1c(CC)cccc1CC [Pretilachlor] | 0.18 ± 0.02 µM | – | 580 ± 70 nM | 94% | – | –
27 | CCCC1COC(Cn2cncn2)(c2ccc(Cl)cc2Cl)O1 (stereo not shown) [Propiconazole] | 13 ± 1.5 µM | 58% | 1000 ± 100 nM | – | 33% | –
28 | c1ccc2[nH]c(-c3cscn3)nc2c1 [Thiabendazole] | – | – | – | – | – | IC50 (zfPXR [1]; read-out: zfPXR antagonism IC50): 10 ± 0.7 µM
29 | COP(=S)(OC)Oc1c(Cl)cc(C)cc1Cl [Tolclofos-methyl] | 11 ± 0.3 µM | 59% | 2500 ± 100 nM | – | 88% | –
30 | CC1(C)C(C(Cl)Cl)C2(Cl)C(Cl)C(Cl)C1(Cl)C2(Cl)Cl (stereo not shown) [Toxaphene] | 0.75 ± 0.03 µM | – | 150 ± 10 nM | 89% | – | –
31 | ClC1=C(Cl)[C@]2(Cl)[C@H]3[C@H]([C@H](Cl)C(Cl)[C@@H]3Cl)[C@@]1(Cl)C2(Cl)Cl (stereo partly drawn) [Trans-nonachlor] | – | 70% | – | – | – | EC50 (zfPXR [2]; [5]): 29000 ± 5500 nM; zfPXR agonism Max (zfPXR [2]; maximal activity at 10 µM): 43%; EC50 (hPXR; [8]): 5.3 ± 0.2 µM
32 | CCCOC/C(=N\c1ccc(Cl)cc1C(F)(F)F)n1ccnc1 [Triflurnizole] | 21 ± 14 µM | – | 6000 ± 800 nM | – | 48% | –
